Results: patent publication US20250387388A1, “COMPOUND AS TRK INHIBITOR AND/OR RET INHIBITOR AND USE THEREOF” (Medinno Pharmaceutical Technology (Zhuhai) Co., Ltd., priority 2022, published 2025)

Assays:
[1] = tested on: atopic dermatitis/eczema in mice; experiment: Atopic dermatitis/eczema model in mice (dust mite extract + SEB); format: in vivo; details: for Number of Scratch Incidents (±SE) / Scratch Duration (±SE) / Skin Erythema, Hemorrhage, Eruption, and Desquamation (Lesion Scoring) (Mean ± SE): Tofacitinib 10 mg/kg
adipocytes = experiment: Lipolysis in vitro in adipocytes; format: cell-based, C57BL/6 mouse
Procedure: Newly extracted neonatal C57BL/6 mouse skin fibroblasts (specific operational steps can be found in the literature: Cell Reports (2023)/doi: 10.1016/j.celrep.2023.112647) were plated and cultured in petri dishes until the cell density reached the highest and contact inhibition. Differentiation medium (DMEM+10% FBS+1× antibiotic; specific formula can be found in the literature: Cell Reports (2023)/doi: 10.1016/j.celrep.2023.112647) was then added to induce the generation of new adipocytes. […] The control group received an equal volume of DMSO. The transformation of adipocytes was observed using a Leica inverted phase contrast microscope.

JAK3 = JAK3 (Homo sapiens (Human), UniProt P52333); details: reported; cited from earlier work
TRKA = TRKA (Homo sapiens (Human), UniProt P04629); details: reported; cited from earlier work
Sequence of TRKA (P04629 33-796 limits assumed): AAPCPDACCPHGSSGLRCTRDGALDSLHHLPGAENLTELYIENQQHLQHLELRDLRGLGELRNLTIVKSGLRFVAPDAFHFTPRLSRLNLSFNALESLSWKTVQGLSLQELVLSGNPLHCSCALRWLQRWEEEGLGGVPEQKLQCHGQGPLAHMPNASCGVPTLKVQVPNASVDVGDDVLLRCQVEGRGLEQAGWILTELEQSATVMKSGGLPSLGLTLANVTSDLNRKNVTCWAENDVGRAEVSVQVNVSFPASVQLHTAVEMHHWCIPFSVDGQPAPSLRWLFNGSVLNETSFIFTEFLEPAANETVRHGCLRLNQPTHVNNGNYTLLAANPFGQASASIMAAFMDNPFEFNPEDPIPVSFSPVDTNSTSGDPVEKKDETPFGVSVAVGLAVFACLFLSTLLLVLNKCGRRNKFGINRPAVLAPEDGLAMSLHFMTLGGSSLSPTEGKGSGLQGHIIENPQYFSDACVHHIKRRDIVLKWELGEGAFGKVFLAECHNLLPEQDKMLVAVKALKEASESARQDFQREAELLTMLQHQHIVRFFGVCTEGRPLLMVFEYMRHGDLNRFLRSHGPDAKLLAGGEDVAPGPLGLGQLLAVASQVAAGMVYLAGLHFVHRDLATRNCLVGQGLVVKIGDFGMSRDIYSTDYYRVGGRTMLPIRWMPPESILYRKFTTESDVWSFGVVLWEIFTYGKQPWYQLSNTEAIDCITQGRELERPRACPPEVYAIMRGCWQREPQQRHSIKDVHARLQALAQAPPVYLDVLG

Sequence of JAK3 (P52333 whole entry, species assumed): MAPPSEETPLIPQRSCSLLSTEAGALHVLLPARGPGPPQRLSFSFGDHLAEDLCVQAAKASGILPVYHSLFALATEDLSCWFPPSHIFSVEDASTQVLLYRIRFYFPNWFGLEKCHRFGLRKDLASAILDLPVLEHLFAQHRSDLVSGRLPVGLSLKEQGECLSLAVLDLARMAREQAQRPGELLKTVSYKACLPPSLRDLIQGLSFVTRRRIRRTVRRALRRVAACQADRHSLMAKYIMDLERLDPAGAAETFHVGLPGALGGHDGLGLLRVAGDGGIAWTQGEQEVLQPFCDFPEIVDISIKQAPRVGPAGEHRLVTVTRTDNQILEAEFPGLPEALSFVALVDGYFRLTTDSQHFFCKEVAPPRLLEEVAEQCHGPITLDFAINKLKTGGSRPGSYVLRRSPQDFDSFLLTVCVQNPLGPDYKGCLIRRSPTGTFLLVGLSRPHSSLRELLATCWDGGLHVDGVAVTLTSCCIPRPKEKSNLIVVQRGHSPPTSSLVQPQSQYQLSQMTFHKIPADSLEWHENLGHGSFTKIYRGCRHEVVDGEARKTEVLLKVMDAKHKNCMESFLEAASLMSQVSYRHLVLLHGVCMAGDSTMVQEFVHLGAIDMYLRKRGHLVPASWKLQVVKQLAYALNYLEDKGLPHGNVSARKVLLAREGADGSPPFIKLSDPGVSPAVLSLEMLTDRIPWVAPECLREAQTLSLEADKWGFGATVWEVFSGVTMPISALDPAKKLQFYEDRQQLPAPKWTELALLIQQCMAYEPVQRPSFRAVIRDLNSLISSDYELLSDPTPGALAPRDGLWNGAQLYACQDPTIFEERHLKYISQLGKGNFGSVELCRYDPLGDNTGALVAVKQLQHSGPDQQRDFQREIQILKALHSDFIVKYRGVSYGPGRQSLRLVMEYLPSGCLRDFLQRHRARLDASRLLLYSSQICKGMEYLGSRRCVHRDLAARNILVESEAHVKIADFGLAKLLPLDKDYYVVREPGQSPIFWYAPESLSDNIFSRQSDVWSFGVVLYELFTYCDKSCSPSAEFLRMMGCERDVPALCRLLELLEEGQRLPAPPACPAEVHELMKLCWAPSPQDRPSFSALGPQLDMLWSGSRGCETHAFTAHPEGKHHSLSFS

Compound | Number of Scratch Incidents (±SE) ([1]; Day 1) | Scratch Duration (±SE) ([1]; Day 1) | Skin Erythema, Hemorrhage, Eruption, and Desquamation (Lesion Scoring) (Mean ± SE) ([1]; Day 1) | Skin Erythema, Hemorrhage, Eruption, and Desquamation (Lesion Scoring) (Mean ± SE) ([1]; Day 4) | Skin Erythema, Hemorrhage, Eruption, and Desquamation (Lesion Scoring) (Mean ± SE) ([1]; Day 7) | Number of Scratch Incidents (±SE) ([1]; Day 14) | Scratch Duration (±SE) ([1]; Day 14) | Skin Erythema, Hemorrhage, Eruption, and Desquamation (Lesion Scoring) (Mean ± SE) ([1]; Day 14) | Behavioral analysis (scratch incidents and scratch duration) ([1]; MDI-1228 high-dose (3% gel), tofacitinib 10 mg/kg) | Lipolysis of differentiated mature adipocytes (phase contrast images) (adipocytes; 5 μM) | Adipocyte lipolysis in vitro (adipocytes; summary statement) | Inhibition of JAK3 (JAK3) | Inhibition of TRKA (TRKA)
C[C@@H]1CCN(C(=O)CC#N)C[C@@H]1N(C)c1ncnc2[nH]ccc12 [Tofacitinib, reference compound] | 17.75 ± 0.86 | 278.25 ± 50.09 | 4.38 ± 0.46 | 2.63 ± 0.26 | 2.00 ± 0.33 | 26.7 ± 1.96 | 217.5 ± 47.85 | 1.50 ± 0.19 | did not show significant effects in the behavioral analysis | does not promote lipolysis | no similar effect |  | 
Pegcantratinib |  |  |  |  |  |  |  |  |  |  |  | capable of inhibiting | capable of inhibiting
